The source of these data is the Kinase Knowledgebase extract (Sharma et al. 2016).

The experiment concerns the target PIK3CA (human) (UniProt P42336). The experiment in a line: Inhibition of PIK3CA Kinase Activity.

The structures appear in SMILES notation.

PIK3CA (human), sequence (P42336 whole entry, looked up): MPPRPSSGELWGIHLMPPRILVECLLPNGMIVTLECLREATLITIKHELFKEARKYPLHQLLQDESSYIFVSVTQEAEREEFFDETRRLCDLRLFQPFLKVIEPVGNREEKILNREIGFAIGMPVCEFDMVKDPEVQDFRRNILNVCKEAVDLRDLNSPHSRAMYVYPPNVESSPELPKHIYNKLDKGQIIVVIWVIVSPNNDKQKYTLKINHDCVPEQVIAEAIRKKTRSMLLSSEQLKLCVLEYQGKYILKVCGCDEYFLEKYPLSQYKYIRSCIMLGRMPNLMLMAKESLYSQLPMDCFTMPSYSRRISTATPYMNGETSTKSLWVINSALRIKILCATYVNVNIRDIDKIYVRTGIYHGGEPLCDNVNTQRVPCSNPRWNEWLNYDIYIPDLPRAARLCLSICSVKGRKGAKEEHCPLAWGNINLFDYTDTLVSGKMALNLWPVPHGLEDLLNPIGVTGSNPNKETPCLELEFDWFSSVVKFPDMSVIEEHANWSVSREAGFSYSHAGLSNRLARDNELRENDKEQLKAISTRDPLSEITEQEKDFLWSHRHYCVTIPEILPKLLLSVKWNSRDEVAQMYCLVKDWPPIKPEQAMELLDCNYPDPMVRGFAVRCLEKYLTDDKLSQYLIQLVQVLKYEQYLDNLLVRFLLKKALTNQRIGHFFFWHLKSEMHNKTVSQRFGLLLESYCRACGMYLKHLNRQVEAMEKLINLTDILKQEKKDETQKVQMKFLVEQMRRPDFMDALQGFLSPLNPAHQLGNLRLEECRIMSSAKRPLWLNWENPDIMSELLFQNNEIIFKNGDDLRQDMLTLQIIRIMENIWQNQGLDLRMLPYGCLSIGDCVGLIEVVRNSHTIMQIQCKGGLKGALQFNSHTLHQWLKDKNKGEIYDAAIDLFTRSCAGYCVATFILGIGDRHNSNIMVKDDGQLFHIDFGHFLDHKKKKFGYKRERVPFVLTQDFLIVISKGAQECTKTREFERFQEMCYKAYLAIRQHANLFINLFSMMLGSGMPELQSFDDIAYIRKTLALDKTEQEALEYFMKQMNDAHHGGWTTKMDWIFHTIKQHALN

The IC50 is the midpoint of a concentration-inhibition curve. Take `Cc1nc2c(c(N3CCOc4ccc(-c5cnc6nc(C7CC7)[nH]c6c5)cc4C3)n1)CC(C)(C)CC2`: the IC50 lay in the range of 50 to 250 nM.

Turning to `Cc1nc2ccc(-c3ccc4c(c3)CN(c3ncnc5cc(I)ccc35)CCO4)cc2[nH]1`, the IC50 is 10 to 50 nM.

For `COc1ccc2c(N3CCOc4ccc(-c5cnc(Cl)c(NS(C)(=O)=O)c5)cc4C3)ncnc2c1`, the IC50 is ≤ 10 nM. In the case of `CCCc1c(C)nc(CN(C)C)nc1N1CCOc2ccc(-c3cnc4sc(N)nc4c3)cc2C1` it was ≤ 10 nM; in that of `COc1ccc2c(N3CCOc4ccc(-c5ccc6[nH]ncc6c5)cc4C3)nc(C)nc2c1`, 250 to 1000 nM; in that of `COCCc1c(C)nc(CN(C)C)nc1N1CCOc2ccc(-c3ccc4nc(C)[nH]c4c3)cc2C1`, ≤ 10 nM. Turning to `COc1ccc2c(N3CCOc4ccc(-c5ccc(-c6nc7ccccc7[nH]6)cc5)cc4C3)nc(C)nc2c1`, the IC50 fell in the range of 250 to 1000 nM. In the case of `COC(=O)Nc1nc2ccc(-c3ccc4c(c3)CN(c3ncnc(C)c3Cc3ccc(F)cc3)CCO4)cc2[nH]1`, the IC50 is ≤ 10 nM.

For the compound `CCNc1nc2ccc(-c3ccc4c(c3)CN(c3nc(CC)nc5cc(OC)ccc35)CCO4)cc2[nH]1`, the IC50 is ≤ 10 nM.

On to `c1ccc2c(N3CCOc4ccc(-c5ccc6nc[nH]c6c5)cc4C3)ncnc2c1`, for which the IC50 is 10 to 50 nM. In the case of `Cc1nc2ccc(-c3ccc4c(c3)CN(c3nc(CN(C)C)nc(C)c3C)CCO4)cc2[nH]1` it was 10 to 50 nM. In the case of `Cc1nc2c(c(N3CCOc4ccc(-c5cnc6sc(N)nc6c5)cc4C3)n1)CC(C)(C)CC2` it was 10 to 50 nM; in that of `CN(C)Cc1nc2c(c(N3CCOc4ccc(-c5ccc(-c6ncc[nH]6)cc5)cc4C3)n1)CC(C)(C)CC2`, ≤ 10 nM; in that of `Cc1nc2ccc(-c3ccc4c(c3)CN(c3nc(CN(C)C)nc(C)c3CC3CC3)CCO4)cc2[nH]1`, 10 to 50 nM.

Regarding `CNC(=O)c1ccc(-c2ccc3c(c2)CN(c2ccnc4ccccc24)CCO3)cc1`, the IC50 was 50 to 250 nM. As for `c1ccc2c(N3CCOc4ccc(-c5ccc6[nH]ncc6c5)cc4C3)ccnc2c1`, the figure is 250 to 1000 nM; as for `CN(C)C1CN(S(=O)(=O)c2cc(-c3ccc4c(c3)CN(c3ncnc5c3CC(C)(C)CC5)CCO4)cnc2N)C1`, 50 to 250 nM; as for `COc1cc2ncnc(N3CCOc4ccc(-c5ccc6nc(C)[nH]c6c5)cc4C3)c2cc1OC`, 50 to 250 nM. In the case of `CC1(C)CCc2ncnc(N3CCOc4ccc(-c5cnc(N)c(NS(C)(=O)=O)c5)cc4C3)c2C1` it was 50 to 250 nM; in that of `CCc1nc2ccc(-c3ccc4c(c3)CN(c3ncnc5c3CC(C)(C)CC5)CCO4)cc2[nH]1`, 50 to 250 nM; in that of `CC[C@H]1CCc2c(nc(C)nc2N2CCOc3ccc(-c4cnc5nc(C)[nH]c5c4)cc3C2)C1`, ≤ 10 nM. In turn, `CNC1CN(S(=O)(=O)c2cc(-c3ccc4c(c3)CN(c3ncnc5c3CC(C)(C)CC5)CCO4)cnc2N)C1` came in with a 50% inhibitory concentration (IC50) of 10 to 50 nM. Consider `Cc1nc2ncc(-c3ccc4c(c3)CN(c3nc(CNCC(C)C)nc5c3CC(C)(C)CC5)CCO4)cc2[nH]1`, for which the IC50 lay within 10 to 50 nM. Turning to `Cc1nc2cc(-c3ccc4c(c3)CN(c3nc(CN(C)C)nc(C)c3Cc3ccc(F)cc3)CCO4)ccc2[nH]1`, the concentration for half-maximal inhibition (IC50) is ≤ 10 nM.

In turn, `Cc1nc(CN(C)C)nc(N2CCOc3ccc(-c4ccc5[nH]c(C(F)F)nc5c4)cc3C2)c1C(C)C` had a 50% inhibitory concentration (IC50) of 10 to 50 nM. Regarding `CC1(C)CCc2ncnc(N3CCOc4ccc(-c5cnc(N)c(S(=O)(=O)N6CCC(C)(N)C6)c5)cc4C3)c2C1` (stereo not drawn), the IC50 lay in the range of 10 to 50 nM. For `CC(=O)OCc1nc2c(c(N3CCOc4ccc(-c5cnc6nc(C)[nH]c6c5)cc4C3)n1)CC(C)(C)CC2`, the IC50 lay in the range of 10 to 50 nM. For `COC1Cc2nc(CN(C)C)nc(N3CCOc4ccc(-c5cnc6nc(C)[nH]c6c5)cc4C3)c2CC1(C)C` (stereo not drawn), the IC50 was ≤ 10 nM.

`CCNc1nc(N2CCOc3ccc(-c4ccc5nc(NCC)[nH]c5c4)cc3C2)c2ccccc2n1`: the 50% inhibitory concentration (IC50) lay in the range of 50 to 250 nM. `COCc1nc2ccc(-c3ccc4c(c3)CN(c3ccnc5ccccc35)CCO4)cc2[nH]1` yielded an IC50 of 250 to 1000 nM.

On to `CCNc1nc2ccc(-c3ccc4c(c3)CN(c3ccnc5cc(F)ccc35)CCO4)cc2[nH]1`, for which the IC50 was ≤ 10 nM. As to `Cc1nc2ccc(-c3ccc4c(c3)CN(c3ncnc(Nc5ccccc5)c3C)CCO4)cc2[nH]1`, the concentration for half-maximal inhibition (IC50) was in the range of 50 to 250 nM. `CCNS(=O)(=O)c1cc(-c2ccc3c(c2)CN(c2ncnc4c2CC(C)(C)CC4)CCO3)cnc1N` had an IC50 of 10 to 50 nM.

In the case of `Cc1nc2cc(-c3ccc4c(c3)CN(c3nc(CN(C)C)nc(C)c3Cc3ccc(F)cc3)CCO4)cnc2[nH]1`, the IC50 was ≤ 10 nM. For the compound `COc1ccc2c(N3CCOc4ccc(-c5cnc(N)nc5)cc4C3)nc(C)nc2c1`, the concentration for half-maximal inhibition (IC50) fell in the range of 50 to 250 nM. On to `Nc1nc2ncc(-c3ccc4c(c3)CN(c3ncnc5ccc(I)cc35)CCO4)cc2[nH]1`, for which the IC50 is ≤ 10 nM. Consider `CCNc1nc2ccc(-c3ccc4c(c3)CN(c3ncnc(C)c3Cc3ccc(F)cc3)CCO4)cc2[nH]1`, for which the half-maximal inhibitory concentration (IC50) is ≤ 10 nM. In turn, `CN1CCC(CNS(=O)(=O)c2cc(-c3ccc4c(c3)CN(c3ncnc5c3CC(C)(C)CC5)CCO4)cnc2N)CC1` displayed an IC50 of 10 to 50 nM. In the case of `Cc1nc2cc(-c3ccc4c(c3)CN(c3nc(C5CCCN5)nc5c3CC(C)(C)CC5)CCO4)cnc2[nH]1` (stereo not drawn) it was 10 to 50 nM; in that of `CN(C)Cc1nc2c(c(N3CCOc4ccc(-c5ccc6scnc6c5)cc4C3)n1)CC(C)(C)CC2`, 250 to 1000 nM. As for `COc1cc2ncnc(N3CCOc4ccc(-c5ccc6nc(C)[nH]c6c5)cc4C3)c2cc1Br`, the figure is 50 to 250 nM; as for `Cc1nc2cc(-c3ccc4c(c3)CN(c3nc(CCN5CCCC5)nc5c3CC(C)(C)CC5)CCO4)cnc2[nH]1`, 10 to 50 nM; as for `Cc1nc2ccc(-c3ccc4c(c3)CN(c3cc(-c5ccccc5)nc5ccccc35)CCO4)cc2[nH]1`, 50 to 250 nM.

In the case of `CCC1CCc2ncnc(N3CCOc4ccc(-c5cnc6nc(N)[nH]c6c5)cc4C3)c2C1` (stereo not drawn), the concentration for half-maximal inhibition (IC50) is ≤ 10 nM. In the case of `Cc1nc2ncc(-c3ccc4c(c3)CN(c3ncnc(C)c3C(C)C)CCO4)cc2[nH]1` it was 10 to 50 nM; in that of `Cc1ncnc(N2CCOc3ccc(-c4ccc(C(=O)NCC(F)F)cc4)cc3C2)c1Cc1ccc(F)cc1`, 50 to 250 nM; in that of `Cc1ncc(-c2ccc3c(c2)CN(c2ncnc4c2CCC(C)(C)C4)CCO3)s1`, 250 to 1000 nM. `Cc1nc2ccc(-c3ccc4c(c3)CN(c3ncnc(C)c3Cc3cccc(F)c3)CCO4)cc2[nH]1`: the IC50 fell in the range of 10 to 50 nM.

As to `CC1(C)CCc2ncnc(N3CCOc4ccc(-c5cnc(N)c(S(=O)(=O)NCCO)c5)cc4C3)c2C1`, the IC50 was ≤ 10 nM. In the case of `Cc1ncnc(N2CCOc3ccc(-c4ccc5nc(N)sc5n4)cc3C2)c1Cc1ccc(F)cc1` it was 50 to 250 nM; in that of `CCNc1nc2ccc(-c3ccc4c(c3)CN(c3cc(Nc5cccc(OC)c5)ncn3)CCO4)cc2[nH]1`, 250 to 1000 nM; in that of `CC1(C)CCc2ncnc(N3CCOc4ccc(-c5cnc(N)c(S(=O)(=O)N6CCCC(N)C6)c5)cc4C3)c2C1` (stereo not drawn), 50 to 250 nM.

Consider `COc1ccc2c(N3CCOc4ccc(-c5cnc6nc[nH]c6c5)cc4C3)nc(C)nc2c1`, for which the half-maximal inhibitory concentration (IC50) is ≤ 10 nM. Consider `CN1CCC[C@H](CNS(=O)(=O)c2cc(-c3ccc4c(c3)CN(c3ncnc5c3CC(C)(C)CC5)CCO4)cnc2N)C1`, for which the half-maximal inhibitory concentration (IC50) was 50 to 250 nM.

The compound `CCNc1nc2ccc(-c3ccc4c(c3)CN(c3nc(C)nc5ccccc35)CCO4)cc2[nH]1` displayed an IC50 of 10 to 50 nM. In the case of `CC1(C)CCc2ncnc(N3CCOc4ccc(-c5cnc(N)c(S(=O)(=O)N[C@H]6CC[C@H](N)CC6)c5)cc4C3)c2C1` it was 10 to 50 nM; in that of `Cc1nc2ccc(-c3ccc4c(c3)CN(c3ccnc(C)c3Cc3ccccc3)CCO4)cc2[nH]1`, 10 to 50 nM; in that of `Cc1nc2ccc(-c3ccc4c(c3)CN(c3ncnc5ccc(F)cc35)CCO4)cc2[nH]1`, 50 to 250 nM. As for `CC[C@H]1CCc2c(ncnc2N2CCOc3ccc(-c4cnc5nc(C)[nH]c5c4)cc3C2)C1`, the figure is ≤ 10 nM; as for `CCC1CCc2nc(C)nc(N3CCOc4ccc(-c5cnc6nc(C)[nH]c6c5)cc4C3)c2C1` (stereo not drawn), 10 to 50 nM.

Regarding `Cc1nc2ncc(-c3ccc4c(c3)CN(c3nc(CO)nc5c3CC(C)(C)CC5)CCO4)cc2[nH]1`, the 50% inhibitory concentration (IC50) is 10 to 50 nM. Regarding `CC1(C)CCc2ncnc(N3CCOc4ccc(-c5cnc(N)c(S(N)(=O)=O)c5)cc4C3)c2C1`, the half-inhibitory concentration (IC50) was ≤ 10 nM. As for `CC(CO)NS(=O)(=O)c1cc(-c2ccc3c(c2)CN(c2ncnc4c2CC(C)(C)CC4)CCO3)cnc1N` (stereo not drawn), the 50% inhibitory concentration (IC50) was ≤ 10 nM.

With `Cc1nc2ccc(-c3ccc4c(c3)CN(c3ncncc3C)CCO4)cc2[nH]1`, the 50% inhibitory concentration (IC50) lay within 250 to 1000 nM.

On to `COc1cc2c(N3CCOc4ccc(-c5ccc6nc(C)[nH]c6c5)cc4C3)ncnc2cc1O`, for which the 50% inhibitory concentration (IC50) lay within 10 to 50 nM. Compound `Cc1nc2cc(-c3ccc4c(c3)CN(c3nc(C(C)N(C)C)nc5c3CC(C)(C)CC5)CCO4)cnc2[nH]1` (stereo not drawn) yielded an IC50 of 10 to 50 nM. As for `CC1(C)CCc2ncnc(N3CCOc4ccc(-c5cnc(N)c(S(=O)(=O)O)c5)cc4C3)c2C1`, the figure is 50 to 250 nM; as for `COC(=O)Nc1nc2ccc(-c3ccc4c(c3)CN(c3ncccc3C)CCO4)cc2[nH]1`, 50 to 250 nM. As for `Cc1nc2ccc(-c3ccc4c(c3)CN(c3ncnc5ccc(Br)cc35)CCO4)cc2[nH]1`, the figure is 50 to 250 nM; as for `COc1ccc(-c2ccc3c(c2)CN(c2nc(CN(C)C)nc4c2CC(C)(C)CC4)CCO3)cc1C(C)=O`, 250 to 1000 nM. As for `CN(C)C(=O)c1cc(-c2ccc3c(c2)CN(c2ncnc4c2CC(C)(C)CC4)CCO3)cnc1N`, the figure is 250 to 1000 nM; as for `Cc1nc(Nc2ccccc2)c(C)c(N2CCOc3ccc(-c4ccc5nc[nH]c5c4)cc3C2)n1`, 50 to 250 nM; as for `CN1CC[C@H](CNS(=O)(=O)c2cc(-c3ccc4c(c3)CN(c3ncnc5c3CC(C)(C)CC5)CCO4)cnc2N)C1`, 50 to 250 nM. Take `CCNc1nc2ccc(-c3ccc4c(c3)CN(c3ncnc5cc(F)ccc35)CCO4)cc2[nH]1`: the IC50 is ≤ 10 nM. Turning to `Cc1nc2ncc(-c3ccc4c(c3)CN(c3nc(CN(C)C)nc(C)c3CC3CC3)CCO4)cc2[nH]1`, the half-maximal inhibitory concentration (IC50) is ≤ 10 nM. In the case of `CC1=Cc2ncnc(N3CCOc4ccc(-c5cnc(N)c(S(=O)(=O)N6CC[C@@H](N)C6)c5)cc4C3)c2CC1(C)C` it was 10 to 50 nM; in that of `Cc1nc2ccc(-c3ccc4c(c3)CN(c3nc(CN5CC[C@H](F)C5)nc5c3CC(C)(C)CC5)CCO4)cc2[nH]1`, 10 to 50 nM. In the case of `Cc1nc2ccc(-c3ccc4c(c3)CN(c3ncnc5scc(C)c35)CCO4)cc2[nH]1` it was 250 to 1000 nM.
